Values of other authors, collected in patent US20100047195A1, “LIP BALM AND METHOD OF TREATING LIP CONDITIONS” (priority 2007, published 2010).

Conditions: oral isotretinoin; estimated

patients treated who develop cheilitis (cracking, soreness and other inflammation of the lips): over 90%
Compound: CC1=C(/C=C/C(C)=C/C=C/C(C)=C\C(=O)O)C(C)(C)CCC1 [isotretinoin, 13-cis-retinoic acid]
